Source: the kinase profiling compilation of Christmann-Franck et al. (2016)

How the values were obtained:
Assay in all cases: radiometric filter-binding kinase assay, Kinase HotSpot
Conditions in all cases: compound 0.5 µM; ATP 10 µM
ACVRL1 (human) = ACVRL1 (human) (UniProt P37023)
AKT1 (human) = AKT1 (human) (UniProt P31749)
BLK (human) = BLK (human) (UniProt P51451)
BRSK1 (human) = BRSK1 (human) (UniProt Q8TDC3)
BRSK2 (human) = BRSK2 (human) (UniProt Q8IWQ3)
CAMKK2 (human) = CAMKK2 (human) (UniProt Q96RR4)
CDC42BPA (human) = CDC42BPA (human) (UniProt Q5VT25)
CDK2 CCNA2 (human) = CDK2 CCNA2 (human) (UniProt P24941+P20248)
CDK5 CDK5R1 p35 (human) = CDK5 CDK5R1 p35 (human) (UniProt Q00535+Q15078)
CLK2 (human) = CLK2 (human) (UniProt P49760)
Sequence of CLK2 (human) (P49760 whole entry, looked up): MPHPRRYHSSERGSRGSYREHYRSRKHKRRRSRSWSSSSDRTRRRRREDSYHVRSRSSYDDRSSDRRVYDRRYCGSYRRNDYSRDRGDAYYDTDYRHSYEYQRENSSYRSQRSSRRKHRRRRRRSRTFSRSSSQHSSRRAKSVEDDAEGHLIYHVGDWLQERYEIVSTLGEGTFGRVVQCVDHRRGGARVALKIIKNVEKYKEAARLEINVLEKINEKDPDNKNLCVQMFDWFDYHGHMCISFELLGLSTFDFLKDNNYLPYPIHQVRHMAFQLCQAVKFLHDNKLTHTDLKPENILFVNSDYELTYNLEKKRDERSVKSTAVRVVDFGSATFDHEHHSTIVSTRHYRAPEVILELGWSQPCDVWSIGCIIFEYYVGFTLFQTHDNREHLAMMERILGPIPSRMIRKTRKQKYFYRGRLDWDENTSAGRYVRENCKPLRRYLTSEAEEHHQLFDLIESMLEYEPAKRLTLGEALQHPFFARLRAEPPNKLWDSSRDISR

DCLK2 (human) = DCLK2 (human) (UniProt Q8N568)
Sequence of DCLK2 (human) (Q8N568 whole entry, looked up): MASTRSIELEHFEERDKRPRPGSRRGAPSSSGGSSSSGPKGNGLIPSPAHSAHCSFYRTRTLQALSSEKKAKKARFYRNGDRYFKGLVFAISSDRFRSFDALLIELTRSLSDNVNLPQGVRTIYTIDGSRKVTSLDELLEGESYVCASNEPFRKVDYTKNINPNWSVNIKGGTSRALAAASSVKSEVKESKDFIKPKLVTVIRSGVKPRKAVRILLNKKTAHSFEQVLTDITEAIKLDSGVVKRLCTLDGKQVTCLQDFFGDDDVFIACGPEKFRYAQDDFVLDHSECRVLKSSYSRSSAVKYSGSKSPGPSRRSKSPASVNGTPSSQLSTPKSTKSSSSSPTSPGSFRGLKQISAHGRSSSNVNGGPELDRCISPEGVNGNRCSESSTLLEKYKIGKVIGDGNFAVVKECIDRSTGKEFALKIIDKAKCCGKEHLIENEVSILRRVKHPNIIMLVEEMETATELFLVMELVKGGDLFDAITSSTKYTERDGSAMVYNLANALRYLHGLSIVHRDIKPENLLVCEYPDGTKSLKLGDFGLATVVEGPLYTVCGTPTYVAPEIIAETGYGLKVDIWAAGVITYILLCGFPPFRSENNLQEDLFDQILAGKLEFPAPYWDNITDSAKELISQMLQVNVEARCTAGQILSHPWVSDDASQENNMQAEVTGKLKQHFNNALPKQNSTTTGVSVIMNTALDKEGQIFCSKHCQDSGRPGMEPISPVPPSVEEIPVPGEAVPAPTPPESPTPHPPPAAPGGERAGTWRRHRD

DSTYK (human) = DSTYK (human) (UniProt Q6XUX3)
EPHA1 (human) = EPHA1 (human) (UniProt P21709)
EPHA6 (human) = EPHA6 (human) (UniProt Q9UF33)
EPHB2 (human) = EPHB2 (human) (UniProt P29323)
EPHB3 (human) = EPHB3 (human) (UniProt P54753)
FGFR3 (human) = FGFR3 (human) (UniProt P22607)
FRK (human) = FRK (human) (UniProt P42685)
GSK3A (human) = GSK3A (human) (UniProt P49840)
INSRR (human) = INSRR (human) (UniProt P14616)
LRRK2 (human) = LRRK2 (human) (UniProt Q5S007)
LTK (human) = LTK (human) (UniProt P29376)
MAP2K1 (human) = MAP2K1 (human) (UniProt Q02750)
MAP2K2 (human) = MAP2K2 (human) (UniProt P36507)
Sequence of MAP2K2 (human) (P36507 whole entry, looked up): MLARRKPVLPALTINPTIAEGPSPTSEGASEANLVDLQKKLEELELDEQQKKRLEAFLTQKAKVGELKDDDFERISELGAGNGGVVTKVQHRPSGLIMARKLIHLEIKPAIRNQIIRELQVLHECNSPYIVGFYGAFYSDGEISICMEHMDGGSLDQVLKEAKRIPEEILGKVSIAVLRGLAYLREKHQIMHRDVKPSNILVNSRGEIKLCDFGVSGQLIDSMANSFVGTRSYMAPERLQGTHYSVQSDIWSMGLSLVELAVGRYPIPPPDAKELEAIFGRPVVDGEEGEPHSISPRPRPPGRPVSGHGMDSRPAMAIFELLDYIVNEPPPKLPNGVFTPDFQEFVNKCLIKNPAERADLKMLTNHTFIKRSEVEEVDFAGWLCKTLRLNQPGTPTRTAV

MAP3K10 (human) = MAP3K10 (human) (UniProt Q02779)
MAP4K2 (human) = MAP4K2 (human) (UniProt Q12851)
MAPK13 (human) = MAPK13 (human) (UniProt O15264)
MAPKAPK3 (human) = MAPKAPK3 (human) (UniProt Q16644)
Sequence of MAPKAPK3 (human) (Q16644 whole entry, looked up): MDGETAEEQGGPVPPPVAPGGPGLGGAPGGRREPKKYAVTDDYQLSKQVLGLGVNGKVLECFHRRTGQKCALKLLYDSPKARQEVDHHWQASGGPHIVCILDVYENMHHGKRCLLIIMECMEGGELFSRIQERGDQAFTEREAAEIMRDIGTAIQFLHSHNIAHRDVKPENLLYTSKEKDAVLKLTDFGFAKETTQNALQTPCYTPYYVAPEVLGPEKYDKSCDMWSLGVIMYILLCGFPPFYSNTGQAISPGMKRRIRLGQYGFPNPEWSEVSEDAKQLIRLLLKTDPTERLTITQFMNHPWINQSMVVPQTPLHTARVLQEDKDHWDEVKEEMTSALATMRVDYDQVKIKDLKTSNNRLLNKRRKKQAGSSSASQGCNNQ

MARK3 (human) = MARK3 (human) (UniProt P27448)
NEK9 (human) = NEK9 (human) (UniProt Q8TD19)
PAK6 (human) = PAK6 (human) (UniProt Q9NQU5)
PASK (human) = PASK (human) (UniProt Q96RG2)
PHKG1 (human) = PHKG1 (human) (UniProt Q16816)
Sequence of PHKG1 (human) (Q16816 whole entry, looked up): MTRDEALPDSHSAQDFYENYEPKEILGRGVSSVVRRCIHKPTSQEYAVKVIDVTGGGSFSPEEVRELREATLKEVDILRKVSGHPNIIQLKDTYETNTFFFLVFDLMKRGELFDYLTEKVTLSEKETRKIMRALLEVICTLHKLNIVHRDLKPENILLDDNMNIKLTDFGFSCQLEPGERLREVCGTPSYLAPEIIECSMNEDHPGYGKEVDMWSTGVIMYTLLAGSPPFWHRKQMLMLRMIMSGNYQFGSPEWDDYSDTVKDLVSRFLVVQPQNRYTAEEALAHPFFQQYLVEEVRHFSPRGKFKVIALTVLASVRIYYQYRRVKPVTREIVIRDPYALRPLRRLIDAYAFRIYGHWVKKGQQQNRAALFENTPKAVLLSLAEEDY

PIM2 (human) = PIM2 (human) (UniProt Q9P1W9)
PRKACA (human) = PRKACA (human) (UniProt P17612)
RPS6KA1 KD1 KD2 (human) = RPS6KA1 KD1 KD2 (human) (UniProt Q15418)
RPS6KA3 KD1 KD2 (human) = RPS6KA3 KD1 KD2 (human) (UniProt P51812)
STK16 (human) = STK16 (human) (UniProt O75716)
ULK1 (human) = ULK1 (human) (UniProt O75385)
Sequence of ULK1 (human) (O75385 whole entry, looked up): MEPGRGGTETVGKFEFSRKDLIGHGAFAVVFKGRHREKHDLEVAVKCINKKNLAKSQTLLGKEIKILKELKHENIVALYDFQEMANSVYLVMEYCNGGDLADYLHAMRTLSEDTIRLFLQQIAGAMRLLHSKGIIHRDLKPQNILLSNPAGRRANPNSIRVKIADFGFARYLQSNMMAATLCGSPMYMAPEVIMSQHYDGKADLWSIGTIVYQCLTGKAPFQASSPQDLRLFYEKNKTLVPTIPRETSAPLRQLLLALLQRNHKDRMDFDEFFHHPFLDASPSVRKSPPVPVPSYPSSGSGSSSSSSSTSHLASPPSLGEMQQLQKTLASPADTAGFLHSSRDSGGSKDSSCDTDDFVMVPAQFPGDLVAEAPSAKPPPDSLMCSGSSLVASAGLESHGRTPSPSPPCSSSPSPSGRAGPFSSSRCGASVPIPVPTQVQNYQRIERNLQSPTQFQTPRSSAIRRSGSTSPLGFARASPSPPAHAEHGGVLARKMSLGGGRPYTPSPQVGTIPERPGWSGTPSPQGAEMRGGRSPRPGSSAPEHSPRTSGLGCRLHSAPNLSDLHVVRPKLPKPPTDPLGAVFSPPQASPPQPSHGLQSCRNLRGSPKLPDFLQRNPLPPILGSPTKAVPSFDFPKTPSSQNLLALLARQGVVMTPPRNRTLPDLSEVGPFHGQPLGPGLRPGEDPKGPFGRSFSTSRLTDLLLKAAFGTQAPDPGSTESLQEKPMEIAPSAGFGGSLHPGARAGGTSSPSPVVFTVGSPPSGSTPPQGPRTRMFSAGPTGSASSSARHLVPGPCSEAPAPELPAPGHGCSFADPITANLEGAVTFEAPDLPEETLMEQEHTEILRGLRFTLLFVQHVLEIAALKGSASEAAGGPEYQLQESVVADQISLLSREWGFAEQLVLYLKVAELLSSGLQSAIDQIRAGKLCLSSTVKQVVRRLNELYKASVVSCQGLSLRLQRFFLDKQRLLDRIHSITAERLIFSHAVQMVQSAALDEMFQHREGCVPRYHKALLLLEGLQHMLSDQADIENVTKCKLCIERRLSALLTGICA

ULK2 (human) = ULK2 (human) (UniProt Q8IYT8)
Sequence of ULK2 (human) (Q8IYT8 whole entry, looked up): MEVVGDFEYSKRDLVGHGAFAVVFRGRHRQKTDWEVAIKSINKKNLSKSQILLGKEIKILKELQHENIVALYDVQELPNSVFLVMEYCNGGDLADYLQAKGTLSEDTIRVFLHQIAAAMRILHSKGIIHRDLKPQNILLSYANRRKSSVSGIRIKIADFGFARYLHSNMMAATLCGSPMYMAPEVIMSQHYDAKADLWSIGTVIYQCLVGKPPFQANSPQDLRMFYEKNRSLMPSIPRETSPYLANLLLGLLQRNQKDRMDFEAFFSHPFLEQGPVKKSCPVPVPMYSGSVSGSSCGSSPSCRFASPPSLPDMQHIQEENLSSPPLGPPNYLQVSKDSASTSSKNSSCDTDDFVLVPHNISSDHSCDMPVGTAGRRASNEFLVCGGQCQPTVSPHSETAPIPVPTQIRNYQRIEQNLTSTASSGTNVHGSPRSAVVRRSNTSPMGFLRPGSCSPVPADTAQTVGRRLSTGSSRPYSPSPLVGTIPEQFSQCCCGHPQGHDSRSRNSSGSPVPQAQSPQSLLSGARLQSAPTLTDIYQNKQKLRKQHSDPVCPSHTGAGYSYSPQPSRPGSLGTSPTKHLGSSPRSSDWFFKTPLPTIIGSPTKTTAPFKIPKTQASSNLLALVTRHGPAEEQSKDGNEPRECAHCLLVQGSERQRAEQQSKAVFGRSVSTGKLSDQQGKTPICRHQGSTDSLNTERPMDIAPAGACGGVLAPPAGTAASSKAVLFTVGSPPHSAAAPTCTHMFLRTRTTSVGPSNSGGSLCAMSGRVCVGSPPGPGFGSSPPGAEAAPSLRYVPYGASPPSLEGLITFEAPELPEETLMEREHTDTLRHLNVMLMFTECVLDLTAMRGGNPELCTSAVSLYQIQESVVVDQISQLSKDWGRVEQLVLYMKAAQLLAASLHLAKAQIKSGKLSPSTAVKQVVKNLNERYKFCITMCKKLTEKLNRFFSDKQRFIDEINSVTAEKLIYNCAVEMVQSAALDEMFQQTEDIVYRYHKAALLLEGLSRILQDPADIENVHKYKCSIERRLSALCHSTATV

CSF1R (human) = CSF1R (human) (UniProt P07333)
MYLK2 (human) = MYLK2 (human) (UniProt Q9H1R3)

Sequence of BLK (human) (P51451 whole entry, looked up): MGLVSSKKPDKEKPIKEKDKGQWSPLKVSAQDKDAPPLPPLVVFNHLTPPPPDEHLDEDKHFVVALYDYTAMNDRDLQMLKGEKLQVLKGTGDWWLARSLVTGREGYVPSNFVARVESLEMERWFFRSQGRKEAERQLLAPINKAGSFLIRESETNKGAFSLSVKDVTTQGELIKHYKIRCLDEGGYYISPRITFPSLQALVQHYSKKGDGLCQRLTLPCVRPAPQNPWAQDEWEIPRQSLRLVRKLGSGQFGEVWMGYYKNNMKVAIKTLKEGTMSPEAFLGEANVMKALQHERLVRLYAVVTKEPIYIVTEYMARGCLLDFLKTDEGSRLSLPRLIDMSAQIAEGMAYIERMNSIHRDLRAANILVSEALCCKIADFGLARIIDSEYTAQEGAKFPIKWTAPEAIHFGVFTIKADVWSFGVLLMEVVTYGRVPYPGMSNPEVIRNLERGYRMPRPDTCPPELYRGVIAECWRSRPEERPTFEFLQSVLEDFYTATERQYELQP

**Q.** With `Cc1ccc(Nc2nccc(N(C)c3ccc4c(C)n(C)nc4c3)n2)cc1S(N)(=O)=O` as the compound, how does the residual activity (ACVRL1 (human)) read?
**A.** 102%

**Q.** And the residual activity (AKT1 (human))?
**A.** 91.2%

**Q.** And the residual activity (BLK (human))?
**A.** 75.6%

**Q.** And the residual activity (BRSK1 (human))?
**A.** 97.2%

**Q.** And the residual activity (BRSK2 (human))?
**A.** 101%

**Q.** What about the residual activity (CAMKK2 (human)) of the same compound?
**A.** 98.5%

**Q.** What about the residual activity (CDC42BPA (human)) of the same compound?
**A.** 85.4%

**Q.** What about the residual activity (CDK2 CCNA2 (human)) of the same compound?
**A.** 96.1%

**Q.** And the residual activity (CDK5 CDK5R1 p35 (human))?
**A.** 99.3%

**Q.** And the residual activity (CLK2 (human))?
**A.** 90.9%

**Q.** And the residual activity (DCLK2 (human))?
**A.** 102%

**Q.** What about the residual activity (DSTYK (human)) of the same compound?
**A.** 94.3%

**Q.** What about the residual activity (EPHA1 (human)) of the same compound?
**A.** 85%

**Q.** What about the residual activity (EPHA6 (human)) of the same compound?
**A.** 80%

**Q.** And the residual activity (EPHB2 (human))?
**A.** 91.9%

**Q.** What about the residual activity (EPHB3 (human)) of the same compound?
**A.** 71.7%

**Q.** What about the residual activity (FGFR3 (human)) of the same compound?
**A.** 39.3%

**Q.** And the residual activity (FRK (human))?
**A.** 58.1%

**Q.** What about the residual activity (GSK3A (human)) of the same compound?
**A.** 101%

**Q.** And the residual activity (INSRR (human))?
**A.** 96.1%

**Q.** What about the residual activity (LRRK2 (human)) of the same compound?
**A.** 109%

**Q.** And the residual activity (LTK (human))?
**A.** 80.2%

**Q.** And the residual activity (MAP2K1 (human))?
**A.** 106%

**Q.** What about the residual activity (MAP2K2 (human)) of the same compound?
**A.** 94.8%

**Q.** And the residual activity (MAP3K10 (human))?
**A.** 28.5%

**Q.** What about the residual activity (MAP4K2 (human)) of the same compound?
**A.** 72.5%

**Q.** And the residual activity (MAPK13 (human))?
**A.** 94.6%

**Q.** And the residual activity (MAPKAPK3 (human))?
**A.** 98.5%

**Q.** And the residual activity (MARK3 (human))?
**A.** 96.6%

**Q.** What about the residual activity (NEK9 (human)) of the same compound?
**A.** 95.8%

**Q.** And the residual activity (PAK6 (human))?
**A.** 105%

**Q.** What about the residual activity (PASK (human)) of the same compound?
**A.** 101%

**Q.** And the residual activity (PHKG1 (human))?
**A.** 92.5%

**Q.** And the residual activity (PIM2 (human))?
**A.** 101%

**Q.** What about the residual activity (PRKACA (human)) of the same compound?
**A.** 94.5%

**Q.** And the residual activity (RPS6KA1 KD1 KD2 (human))?
**A.** 92.8%

**Q.** And the residual activity (RPS6KA3 KD1 KD2 (human))?
**A.** 99.1%

**Q.** What about the residual activity (STK16 (human)) of the same compound?
**A.** 43.8%

**Q.** And the residual activity (ULK1 (human))?
**A.** 97.3%

**Q.** What about the residual activity (ULK2 (human)) of the same compound?
**A.** 102%

**Q.** How did the residual activity (ACVRL1 (human)) turn out when `CC(=O)c1ccc(N2CCOCC2)cc1O` was run?
**A.** 103%

**Q.** And the residual activity (AKT1 (human))?
**A.** 103%

**Q.** What about the residual activity (BLK (human)) of the same compound?
**A.** 102%

**Q.** What about the residual activity (BRSK1 (human)) of the same compound?
**A.** 97.6%

**Q.** What about the residual activity (BRSK2 (human)) of the same compound?
**A.** 100%

**Q.** What about the residual activity (CAMKK2 (human)) of the same compound?
**A.** 115%

**Q.** And the residual activity (CDC42BPA (human))?
**A.** 100%

**Q.** And the residual activity (CDK2 CCNA2 (human))?
**A.** 99.3%

**Q.** What about the residual activity (CDK5 CDK5R1 p35 (human)) of the same compound?
**A.** 97.1%

**Q.** And the residual activity (CLK2 (human))?
**A.** 102%

**Q.** And the residual activity (CSF1R (human))?
**A.** 100%

**Q.** What about the residual activity (DCLK2 (human)) of the same compound?
**A.** 101%

**Q.** And the residual activity (DSTYK (human))?
**A.** 95.3%

**Q.** What about the residual activity (EPHA1 (human)) of the same compound?
**A.** 94%

**Q.** What about the residual activity (EPHB2 (human)) of the same compound?
**A.** 82.5%

**Q.** What about the residual activity (EPHB3 (human)) of the same compound?
**A.** 92.3%

**Q.** And the residual activity (FGFR3 (human))?
**A.** 105%

**Q.** And the residual activity (FRK (human))?
**A.** 91.6%

**Q.** What about the residual activity (GSK3A (human)) of the same compound?
**A.** 101%

**Q.** What about the residual activity (INSRR (human)) of the same compound?
**A.** 96.7%

**Q.** What about the residual activity (LRRK2 (human)) of the same compound?
**A.** 96.1%

**Q.** And the residual activity (LTK (human))?
**A.** 102%

**Q.** And the residual activity (MAP2K1 (human))?
**A.** 95.2%

**Q.** And the residual activity (MAP2K2 (human))?
**A.** 99.8%

**Q.** And the residual activity (MAP3K10 (human))?
**A.** 104%

**Q.** And the residual activity (MAP4K2 (human))?
**A.** 116%

**Q.** And the residual activity (MAPK13 (human))?
**A.** 104%

**Q.** What about the residual activity (MAPKAPK3 (human)) of the same compound?
**A.** 105%

**Q.** And the residual activity (MARK3 (human))?
**A.** 108%

**Q.** And the residual activity (MYLK2 (human))?
**A.** 98.6%

**Q.** And the residual activity (NEK9 (human))?
**A.** 93.9%

**Q.** What about the residual activity (PAK6 (human)) of the same compound?
**A.** 93.7%

**Q.** What about the residual activity (PASK (human)) of the same compound?
**A.** 95%

**Q.** What about the residual activity (PHKG1 (human)) of the same compound?
**A.** 96.5%

**Q.** What about the residual activity (PIM2 (human)) of the same compound?
**A.** 117%

**Q.** What about the residual activity (PRKACA (human)) of the same compound?
**A.** 102%

**Q.** And the residual activity (RPS6KA1 KD1 KD2 (human))?
**A.** 92.4%

**Q.** And the residual activity (RPS6KA3 KD1 KD2 (human))?
**A.** 101%

**Q.** And the residual activity (STK16 (human))?
**A.** 110%

**Q.** And the residual activity (ULK1 (human))?
**A.** 94.8%

**Q.** What about the residual activity (ULK2 (human)) of the same compound?
**A.** 114%

**Q.** Which results are given for `CNC(=O)c1cc(Oc2ccc(NC(=O)Nc3ccc(Cl)c(C(F)(F)F)c3)cc2)ccn1`?
**A.** residual activity (ACVRL1 (human)): 104%; residual activity (AKT1 (human)): 96.2%; residual activity (BLK (human)): 99.1%; residual activity (BRSK1 (human)): 95.8%; residual activity (BRSK2 (human)): 103%; residual activity (CAMKK2 (human)): 103%; residual activity (CDC42BPA (human)): 85.2%; residual activity (CDK2 CCNA2 (human)): 99.7%; residual activity (CDK5 CDK5R1 p35 (human)): 99.9%; residual activity (CLK2 (human)): 92.8%; residual activity (DCLK2 (human)): 102%; residual activity (DSTYK (human)): 97.7%; residual activity (EPHA1 (human)): 87.7%; residual activity (EPHA6 (human)): 42%; residual activity (EPHB2 (human)): 93.2%; residual activity (EPHB3 (human)): 95.5%; residual activity (FGFR3 (human)): 89.5%; residual activity (GSK3A (human)): 103%; residual activity (INSRR (human)): 104%; residual activity (LRRK2 (human)): 106%; residual activity (LTK (human)): 99.9%; residual activity (MAP2K1 (human)): 102%; residual activity (MAP2K2 (human)): 89.7%; residual activity (MAP3K10 (human)): 104%; residual activity (MAP4K2 (human)): 108%; residual activity (MAPK13 (human)): 97.5%; residual activity (MAPKAPK3 (human)): 100%; residual activity (MARK3 (human)): 103%; residual activity (MYLK2 (human)): 96.1%; residual activity (NEK9 (human)): 95.4%; residual activity (PAK6 (human)): 104%; residual activity (PASK (human)): 99.5%; residual activity (PHKG1 (human)): 94.3%; residual activity (PIM2 (human)): 103%; residual activity (PRKACA (human)): 92.6%; residual activity (RPS6KA1 KD1 KD2 (human)): 101%; residual activity (RPS6KA3 KD1 KD2 (human)): 100%; residual activity (STK16 (human)): 105%; residual activity (ULK1 (human)): 94.3%; residual activity (ULK2 (human)): 106%
